Where two headings read alike, the source gives them in different places.
Key:
NAD biosynthesis pathway = experiment: Monitoring inhibition of NAD biosynthesis; format: cell-based; details: 48 hours of treatment; several cell lines; detection with PBI 4312
Procedure: Cells were plated at 7.5×10^3 cells/12.5 ul into wells of a 384-well plates. The cells were plated in full media containing 10% FBS (PC3 and A549 cells in F12K; Hela, MD-AMB and HET 116 cells in DMEM without pyruvate; HepG2 cells in E-MEM and Jurkat cells in RPMI). […] The cells were placed in a CO2 dependent incubator. […] Promega Cat. No V8920) was added to each well. The reaction was incubated for 30 minutes at room temperature, and luminescence measured using a Tecan plate luminometer. The data are shown as % inhibition compared to control (no inhibitor) and are plotted using the sigmoidal dose-response, variable slope model supplied with SigmaPlot 11.0 software. A signal-to-background ratio (S/B) calculated between control cells and cells treated with the highest FK866 concentration.

HEK293 cells = experiment: Measuring metabolically active cells with quinone fluorescein derivatives; format: cell-based; details: HEK293 cell dilutions; 60 minutes; 480ex/530em
Procedure: i. Two-fold serial dilutions of HEK293 cells were prepared in full DMEM media, and 100 μl per well were transferred into wells of 96-well plates. Compounds PBI 4440 and 4412 were diluted in full DMEM media to make 20 μM and 10 μM stocks, respectively. 100 μl of the prepared compound stocks were added to the cells, and the cells were incubated for 60 minutes in a 37° C., 5% CO2 incubator. Following incubation, the cells were removed from incubator, and fluorescence measured with Tecan Infinite 500 at 480ex/Em530em wavelength.

HeLa cells = experiment: Fluorescent imaging of live cells; format: cell-based; details: 10 μM substrate
Procedure: HeLa cells were plated at 40,000 cell/well into wells of an 8-well chambered coverslip and incubated at 37° C.+5% CO2. The media (DMEM) was replaced with warm complete media (with 10% FBS) containing 10 μM PBI-4412, 4413, 4440 or 4441. Cells were then transferred to a confocal microscope for imaging using 10% λ488 nm laser power (4412, 4413, and 4441) or 5% laser power (4440). All images (FIGS. 6a-d) are at 30× magnification.

rat diaphorase = target: T1, rat diaphorase (Rattus norvegicus, UniProt P05982); format: biochemical; details: for Fluorescence time course, Rat: 10 uM NADH
T1 construct: purchased Sigma
T1 sequence (P05982 2-274 limits assumed): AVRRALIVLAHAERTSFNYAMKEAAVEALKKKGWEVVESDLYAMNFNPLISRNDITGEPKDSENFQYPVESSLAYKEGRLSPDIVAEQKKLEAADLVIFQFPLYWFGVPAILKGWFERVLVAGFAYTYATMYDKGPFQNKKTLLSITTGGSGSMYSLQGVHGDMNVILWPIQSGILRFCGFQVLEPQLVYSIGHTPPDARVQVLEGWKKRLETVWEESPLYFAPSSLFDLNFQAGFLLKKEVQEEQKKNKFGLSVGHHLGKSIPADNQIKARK

Clostridium diaphorase = experiment: Fluorescent NADH detection assay, Clostridium diaphorase; format: biochemical; details: for FLUs: 1 u/ml Clostridium diaphorase; for Fluorescence time course, Clostridium: 10 uM NADH
Procedure: Each fluorescent substrate (PBI-4412, 4413, 4440, and 4441) was incubated at 920 μM with 0 μM or 10 μM NADH (Sigma) or a titration of NADH (Table 8) and 1 u/ml rat diaphorase (Sigma) or 1 u/ml Clostridium diaphorase (Sigma) in a volume of 100 μl in 50 mM Tris pH 7.5. Single reactions were prepared in the wells of a 96-well black plate at room temperature. Fluorescence was monitored over the course of two hours at excitation and emission wavelengths of 485 and 527, respectively, using a fluorescence plate reader. […] Table 7 and FIGS. 24a-b show the reaction time course with each substrate with 10 uM NADH. Table 8 and FIG. 25 show the NADH titration at 60 minutes with PBI-4440 and 4412 with rat diaphorase.

O=C(/C=C/c1cccnc1)NCCCCC1CCN(C(=O)c2ccccc2)CC1 [FK866]
effect on cellular NAD levels (NAD biosynthesis pathway): decrease in NAD levels

CC1=C(C)C(=O)C(C(C)(C)CC(=O)N(C)CCN(C)C(=O)Oc2ccc3c(c2)Oc2cc(O)ccc2C32OC(=O)c3ccccc32)=C(C)C1=O (stereo not drawn) [PBI 4440, Mono-quinone trimethyllock diamine fluorescein]
relationship of fluorescence to cell number (HEK293 cells): linear correlation between cell number and fluorescence | reduction of substrate in live cells (confocal images) (HeLa cells): only reduced once inside cells | FLUs (rat diaphorase; 0 μM NADH, 60 min, 1 u/ml rat diaphorase): 2922 FLUs | FLUs (rat diaphorase; 10 μM NADH, 60 min, 1 u/ml rat diaphorase, substrate 920 μM): 180909 FLUs | Fluorescence time course, Rat (rat diaphorase; 2 min): 6473 FLUs | Fluorescence time course, Rat (rat diaphorase; 4 min): 18626 FLUs | Fluorescence time course, Rat (rat diaphorase; 5 min): 28997 FLUs | Fluorescence time course, Rat (rat diaphorase; 10 min): 73216 FLUs | Fluorescence time course, Rat (rat diaphorase; 20 min): 133999 FLUs | Fluorescence time course, Rat (rat diaphorase; 30 min): 161355 FLUs | Fluorescence time course, Rat (rat diaphorase; 40 min): 173345 FLUs | Fluorescence time course, Rat (rat diaphorase; 50 min): 178374 FLUs | Fluorescence time course, Rat (rat diaphorase; 60 min): 180909 FLUs | Fluorescence time course, Rat (rat diaphorase; 70 min): 182618 FLUs | Fluorescence time course, Rat (rat diaphorase; 80 min): 182416 FLUs | Fluorescence time course, Rat (rat diaphorase; 90 min): 182263 FLUs | Fluorescence time course, Rat (rat diaphorase; 100 min): 181996 FLUs | Fluorescence time course, Rat (rat diaphorase; 110 min): 182253 FLUs | Fluorescence time course, Rat (rat diaphorase; 120 min): 182132 FLUs | FLUs (rat diaphorase; NADH 0 μM, 60 minutes, rat diaphorase): 2922 FLUs | FLUs (rat diaphorase; NADH 1.25 μM, 60 minutes, rat diaphorase): 24788 FLUs | FLUs (rat diaphorase; NADH 2.5 μM, 60 minutes, rat diaphorase): 50387 FLUs | FLUs (rat diaphorase; NADH 5 μM, 60 minutes, rat diaphorase): 99331 FLUs | FLUs (rat diaphorase; NADH 10 μM, 60 minutes, rat diaphorase): 180909 FLUs | FLUs (rat diaphorase; NADH 20 μM, 60 minutes, rat diaphorase): 309004 FLUs | FLUs (rat diaphorase; NADH 40 μM, 60 minutes, rat diaphorase): 304293 FLUs | FLUs (rat diaphorase; NADH 80 μM, 60 minutes, rat diaphorase): 305861 FLUs | FLUs (Clostridium diaphorase; 0 μM NADH, 60 min): 3050 FLUs | FLUs (Clostridium diaphorase; 10 μM NADH, 60 min, substrate 920 μM): 43362 FLUs | Fluorescence time course, Clostridium (Clostridium diaphorase; 2 min): 3611 FLUs | Fluorescence time course, Clostridium (Clostridium diaphorase; 4 min): 7197 FLUs | Fluorescence time course, Clostridium (Clostridium diaphorase; 5 min): 10142 FLUs | Fluorescence time course, Clostridium (Clostridium diaphorase; 10 min): 20624 FLUs | Fluorescence time course, Clostridium (Clostridium diaphorase; 20 min): 33781 FLUs | Fluorescence time course, Clostridium (Clostridium diaphorase; 30 min): 39807 FLUs | Fluorescence time course, Clostridium (Clostridium diaphorase; 40 min): 42268 FLUs | Fluorescence time course, Clostridium (Clostridium diaphorase; 50 min): 43000 FLUs | Fluorescence time course, Clostridium (Clostridium diaphorase; 60 min): 43362 FLUs | Fluorescence time course, Clostridium (Clostridium diaphorase; 70 min): 43750 FLUs | Fluorescence time course, Clostridium (Clostridium diaphorase; 80 min): 43425 FLUs | Fluorescence time course, Clostridium (Clostridium diaphorase; 90 min): 43468 FLUs | Fluorescence time course, Clostridium (Clostridium diaphorase; 100 min): 43296 FLUs | Fluorescence time course, Clostridium (Clostridium diaphorase; 110 min): 43005 FLUs | Fluorescence time course, Clostridium (Clostridium diaphorase; 120 min): 43150 FLUs

Source: patent US9951372B2, “Compounds and methods for assaying redox state of metabolically active cells and methods for measuring NAD(P)/NAD(P)H” (PROMEGA CORPORATION, priority 2011, dated 2018)
